# Source: ChEMBL document CHEMBL3272215, “Gliotoxin analogues as inhibitors of reverse transcriptase. 2. Resolution and X-ray crystal structure determination” (J Med Chem, 1978)
# Activity calls are given as the source filed them. The calls are words filed in the database; no cut-off is given here.
# Tested on: Moloney murine leukemia virus
# Experiment: Inhibition of Moloney murine leukemia virus reverse transcriptase assessed as [3H]-dTMP incorporation after 30 to 120 mins
Structure (SMILES),inhibition,logI50
CN1C(=O)[C@]23SS[C@@]1(C)C(=O)N2c1ccccc1C3(C)C,Active,
CN1C(=O)[C@@]23SS[C@]1(C)C(=O)N2c1ccccc1C3(C)C,Active,
CN1C(=O)[C@]23SSC[C@@H]4OC(C)(C)O[C@H]4CSS[C@@]1(C)C(=O)N2c1ccccc1C3(C)C,,0.796
CN1C(=O)[C@@]23SSC[C@@H]4OC(C)(C)O[C@H]4CSS[C@]1(C)C(=O)N2c1ccccc1C3(C)C,,0.796
